Test results published in patent publication US5364871A, “New thiazole derivatives, and pharmaceutical composition comprising the same” (Fujisawa Pharmaceutical Co., Ltd., priority 1989, dated 1994).

Assays:
[1] = test system: Gastric secretion; assay: Test A: Gastric secretion in Heidenhain pouch dogs; assay type: in vivo; details: total acid output, tetragastrin (10 μg/kg/hr) stimulated; 3.2 mg/kg orally; Beagle dogs
Protocol: Test A (Gastric secretion in Heidenhain pouch dogs):
Beagle dogs, weighing about 8-13 kg, were used for the study on gastric secretion. The animals were surgically provided with a vagally denervated Heidenhain pouch. One month or more later, the dogs were fasted overnight. Gastric secretion was stimulated by an intravenous infusion of tetragastrin (10 μg/kg/hr). Gastric samples were collected at 15 min intervals. After its volume was almost constant, test compound (3.2 mg/kg) suspended in 0.1% methyl cellulose solution was administered orally. Acid concentration was determined by titrating an aliquot to pH 7.0 with 0.1N sodium hydroxide solution using automatic titration (Hiranuma RAT-11 Type). Total acid output was calculated by multiplying total volume of gastric samples by acid concentration, and percentage change of total acid output was calculated by comparing with predosing value of test compound.

[2] = test system: Gastric secretion; assay: Test C: Gastric secretion from lumen perfused stomach in anesthetized rats; assay type: in vivo, Male Sprague-Dawley rats; details: maximal inhibition of acid output, histamine (3 mg/kg/hr) stimulated, 1 mg/kg intravenously
Protocol: Test C (Gastric secretion from lumen perfused stomach
Male Sprague-Dawley rats weighing about 250 g were used. Rats were deprived of food but allowed free access to water for 24 hours. The animals were anesthetized with 1.25 g/kg urethane intraperitoneally. The abdomen was opened and the gastric lumen was perfured with saline throughout the experiment. The perfusate was titrated by an antotitrator with 25 mM sodium hydroxide as a titrant. Gastric secretion was stimulated by intravenous infusion with histamine (3 mg/kg/hr). After reaching plateau, test compound (1 mg/kg) was given intravenously. Drug effect was expressed as maximal inhibition by acid output.

[3] = test system: stress ulcer; assay: Test B: Inhibition of stress ulcer; assay type: in vivo, male Sprague-Dawley rats; details: area of ulcers, restraint and water immersion 7 hours; 32 mg/kg orally; rats
Protocol: Test B (Inhibition of stress ulcer):
Five male Sprague-Dawley rats, aged 7 weeks and weighing about 200 g were used per group for the study on stress ulcer after the fast for 24 hours. Each animal was immobilized in a restrain cage and immersed to a level of the xiphoid in a water bath kept 22° C. Each of the test compounds (32 mg/kg) suspended in 0.1% methylcellulose solution was administered orally just before the immobilization. Seven hours later, the animals were sacrificed and their stomachs were removed. The stomach was then fixed with 2% formalin. The area of ulcers was measured for each animal, and percentage of inhibition was calculated by comparing the mean area of ulcers (mm^2) in the test animals with that in the control animals.

[4] = test system: Helicobacter pyloridis 8008; assay: Test D: Anti-microbial activity (agar dilution method); assay type: cell-based; details: 72 h, Brucella agar plus 5% lysed horse blood, 37° C., 3 days, 10% CO2
Protocol: Test D (Anti-microbial activity):
In vitro antimicrobial activity was determined by the agar dilution method. Test strain was precultured in Brucella broth containing 5% horse serum at 37° C. for 3 days 10^4 cfu were inoculated with a multipoint replicater onto Brucella agar plus 5% lysed horse blood plate containing serial 2-fold dilutions of each drug at 37° C. for 3 days. Incubation was carried out in an atmosphere of 10% CO2. MIC was read after incubation as the lowest drug concentration that inhibited macroscopic colonial growth.

[5] = test system: HCl-aspirin ulcer; assay: Test E: Inhibition of HCl-aspirin ulcer; assay type: in vivo, male Sprague-Dawley rats; details: length of ulcers; 32 mg/kg orally 30 minutes before aspirin (200 mg/kg in 0.2N HCl); rats
Protocol: Test E (Inhibition of HCl-aspirin ulcer):
Seven male Sprague-Dawley rats, aged 6 weeks and weighing about 200 g were used per group for the study on HCl-aspirin ulcer after the fast for 24 hours. Each of the test compounds (32 mg/kg) suspended in 0.1% methylcellulose solution was administered orally 30 minutes before aspirin administration. Aspirin, suspended in 0.1% methylcellulose solution containing 0.2N HCl, was administered orally at a dose of 200 mg/kg/10 ml. One hour later, the animals were sacrificed and their stomachs were removed. The stomach was then fixed with 2% formalin. The length of ulcers was measured for each animal, and percentage of inhibition was calculated by comparing the mean length of ulcers (mm) in the test animals with that in the control animals.

## CC(=O)NCc1cccc(-c2csc(N=C(N)N)n2)n1 [(a)]
[1]
  Inhibition (%): 95%

## NC(=O)NCc1cccc(-c2csc(N=C(N)N)n2)n1 [(b)]
[2]
  Inhibition (%): 98%

## NC(=O)NCc1nc(-c2csc(N=C(N)N)n2)cs1 [(c)]
[2]
  Inhibition (%): 97%

## CCOC(=O)c1nc(-c2csc(N=C(N)N)n2)cs1 [(d)]
[3]
  Inhibition (%): 93.9%

## CCCCNC(N)=Nc1nc(-c2cccc(CNC(C)=O)n2)cs1 [(e)]
[4]
  MIC: 0.78 µg/mL
[5]
  Inhibition (%): 98.1%
